# Data as given in patent US10577373B2, “TYK2 inhibitors and uses thereof” (Nimbus Lakshmi, Inc., priority 2017, dated 2020).
# Legend:
# [1] = target: human TYK2 (JH2 domain-pseudokinase) (Homo sapiens (Human), UniProt P29597); test: TYK2 JH2 Domain Binding Assay (KINOMEscan)
# Procedure: Binding constants for compounds of the present invention against the JH2 domain were determined by the following protocol for a KINOMEscan® assay (DiscoveRx). A fusion protein of a partial length construct of human TYK2 (JH2 domain-pseudokinase) (amino acids G556 to D888 based on reference sequence NP_003322.3) and the DNA binding domain of NFkB was expressed in transiently transfected HEK293 cells. From these HEK 293 cells, extracts were prepared in M-PER extraction buffer (Pierce) in the presence of Protease Inhibitor Cocktail Complete (Roche) and Phosphatase Inhibitor Cocktail Set II (Merck) per manufacturers' instructions. The TYK2 (JH2 domain-pseudokinase) fusion protein was labeled with a chimeric double-stranded DNA tag containing the NFkB binding site (5′-[…]-3′) fused to an amplicon for qPCR readout, which was added directly to the expression extract (the final concentration of DNA-tag in the binding reaction is 0.1 nM).
# The liganded beads were blocked with excess biotin and washed with blocking buffer (SeaBlock (Pierce), 1% BSA, 0.05% Tween 20, 1 mM DTT) to remove unbound ligand and to reduce nonspecific binding.
# Extracts were used directly in binding assays without any enzyme purification steps at a ≥10,000-fold overall stock dilution (final DNA-tagged enzyme concentration<0.1 nM). Extracts were loaded with DNA-tag and diluted into the binding reaction in a two step process. First extracts were diluted 1:100 in 1× binding buffer (PBS/0.05% Tween 20/10 mM DTT/0.1% BSA/2 μg/ml sonicated salmon sperm DNA) containing 10 nM DNA-tag. This dilution was allowed to equilibrate at room temperature for 15 minutes and then subsequently diluted 1:100 in 1× binding buffer. […] Kds were determined using an 11-point 3-fold compound dilution series with three DMSO control points. […] The compounds were then diluted directly into the assays such that the final concentration of DMSO was 0.9%. All reactions performed in polypropylene 384-well plates. Each was a final volume of 0.02 mL. Assays were incubated with shaking for 1 hour at room temperature. Then the beads were pelleted and washed with wash buffer (lx PBS, 0.05% Tween 20) to remove displaced kinase and test compound. […] The qPCR protocol consisted of a 10 minute hot start at 95° C., followed by 35 cycles of 95° C. for 15 seconds, 60° C. for 1 minute.
# Kds were determined using an 11-point 3-fold compound dilution series with three DMSO control points. […] The compounds were then diluted directly into the assays such that the final concentration of DMSO was 0.9%. The Kds were determined using a compound top concentration of 30,000 nM. Kd measurements were performed in duplicate.
# Binding constants (Kds) were calculated with a standard dose-response curve using the Hill equation: […]
# The Hill Slope was set to −1.
# Tyk2 kinase domain (JH1) = Tyk2 kinase domain (JH1) (Homo sapiens (Human), UniProt P29597); test: Tyk2 Radioactive Kinase Assay; assay type: biochemical; conditions: ATP 10 μM
# Tyk2 kinase domain (JH1), sequence (P29597 897-1176): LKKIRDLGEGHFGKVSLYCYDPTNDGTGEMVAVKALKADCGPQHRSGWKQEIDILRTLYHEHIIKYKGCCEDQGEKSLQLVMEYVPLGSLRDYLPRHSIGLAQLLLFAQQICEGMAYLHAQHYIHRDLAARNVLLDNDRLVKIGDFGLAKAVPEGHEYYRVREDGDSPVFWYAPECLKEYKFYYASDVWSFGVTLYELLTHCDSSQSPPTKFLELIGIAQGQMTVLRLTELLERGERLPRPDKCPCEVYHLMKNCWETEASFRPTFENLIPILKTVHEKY
# Procedure: (§1) The Tyk2 and JAK2 radioactive kinase assay measures the percent inhibition at the Tyk2 kinase domain (JH1) and the percent inhibition at the JAK2 kinase domain (JH1). Results of the assay are expressed as percent inhibition at 10 μM.
# JAK2 kinase domain (JH1) = JAK2 kinase domain (JH1) (Homo sapiens (Human), UniProt O60674); test: JAK2 Radioactive Kinase Assay; assay type: biochemical; conditions: ATP 10 μM
# JAK2 kinase domain (JH1), sequence (O60674 849-1124): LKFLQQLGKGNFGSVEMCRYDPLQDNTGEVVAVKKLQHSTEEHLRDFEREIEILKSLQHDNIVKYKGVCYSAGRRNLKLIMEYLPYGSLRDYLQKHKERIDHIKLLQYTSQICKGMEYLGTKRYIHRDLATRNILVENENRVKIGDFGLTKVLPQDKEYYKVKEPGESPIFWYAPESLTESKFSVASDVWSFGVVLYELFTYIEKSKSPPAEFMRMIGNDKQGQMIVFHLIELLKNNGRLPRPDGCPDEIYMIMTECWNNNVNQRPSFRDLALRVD
# Procedure: as §1
# [2] = tested on: IL-12 induced STAT4 phophorylation mediated by Tyk2/JAK2 (heterodimeric complex); test: IL-12 Induced pSTAT4 in Human PBMC; assay type: cell-based; conditions: 1.7 ng/mL IL-12
# From the text: The IL-12 Induced pSTAT4 assay evaluates the inhibition of IL-12 induced STAT4 phophorylation mediated by Tyk2/JAK2 (heterodimeric complex).
# [3] = tested on: GM-CSF induced STAT5 phosphorylation mediated by the JAK2/JAK2 homdimeric complex; test: GM-CSF Induced pSTAT5 in Human PBMC; conditions: Homo sapiens, PBMC, 20 min, read-out: PBMC_GMCSF_pSTAT5 IC50, human PBMC; GM-CSF 5 ng/mL for 20 minutes; pSTAT5
# From the text: Human PBMC are isolated from buffy coat and are stored frozen for assays as needed.
# human TYK2 (JH2 domain-pseudokinase), sequence (P29597 556-888): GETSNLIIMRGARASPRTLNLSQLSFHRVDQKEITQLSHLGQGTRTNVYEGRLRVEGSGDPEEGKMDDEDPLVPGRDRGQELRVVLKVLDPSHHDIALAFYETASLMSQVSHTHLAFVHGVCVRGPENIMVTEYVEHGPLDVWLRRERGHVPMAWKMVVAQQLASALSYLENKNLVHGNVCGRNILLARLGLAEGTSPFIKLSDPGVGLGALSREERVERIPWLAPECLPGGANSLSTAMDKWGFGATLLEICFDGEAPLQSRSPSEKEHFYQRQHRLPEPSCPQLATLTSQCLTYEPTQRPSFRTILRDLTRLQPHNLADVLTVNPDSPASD
smiles,measurement,setting,value
CNc1cc(C2=CN(C(C)C)C3N=CC(F)=CC23)nc2c(C(=O)N[C@@H]3CC[C@@H]3O)cnn12 (some centres unmarked) [I-1386],Kd,[1],1 to 10 nM
CNc1cc(Nc2cc(F)cn(C3CCOCC3)c2=O)nc2c(C(=O)NCC(C)(C)CO)cnn12 [I-529],inhibition at 10 µM,Tyk2 kinase domain (JH1); compound at 10 μM,< 50%
same,inhibition at 10 µM,JAK2 kinase domain (JH1); compound at 10 μM,< 50%
[2H]C([2H])([2H])Oc1ncccc1Nc1cc(NC)n2ncc(C(=O)N[C@H]3[C@@H]4COC[C@@H]43)c2n1 [I-447],Kd,[1],< 0.2 nM
"CNc1cc(Nc2cccn(-c3cnc(C(=O)N(C)C)cn3)c2=O)nc2c(C(N)=O)cnn12 [I-53, 5-((1-(5-(dimethylcarbamoyl)pyrazin-2-yl)-2-oxo-1,2-dihydropyridin-3-yl)amino)-7-(methylamino)pyrazolo[1,5-a]pyrimidine-3-carboxamide]",Kd,[1],< 0.2 nM
same,inhibition at 10 µM,Tyk2 kinase domain (JH1); 10 μM compound,< 50%
same,inhibition at 10 µM,JAK2 kinase domain (JH1); 10 μM compound,< 50%
CNc1cc(Nc2cccn(-c3ccccn3)c2=O)nc2c(C(=O)N[C@@H]3CC[C@H]3COC)cnn12 [I-1232],Kd,[1],0.2 to 1 nM
CNc1cc(Nc2cccc([C@@H]3CCCOC3)n2)nc2c(C(=O)N[C@H]3CC[C@H]3O)cnn12 [I-645],Kd,[1],1 to 10 nM
CNc1cc(Nc2cccn(-c3cccc(C)n3)c2=O)nc2c(C(=O)NC3CC3)cnn12 [I-237],Tyk2 JH1% Inhibition @ 10 μM,Tyk2 kinase domain (JH1); 10 μM compound,A (percent inhibition at 10 μM lower than 50)
same,JAK2 JH1% Inhibition @ 10 μM,JAK2 kinase domain (JH1); 10 μM compound,A (percent inhibition at 10 μM lower than 50)
"CNc1cc(Nc2cccn([C@H]3CCCC[C@H]3O)c2=O)nc2c(C(=O)N[C@@H]3C[C@@H]3F)cnn12 [I-988, N-((1R,2S)-2-fluorocyclopropyl)-5-((1-((1S,2R)-2-hydroxycyclohexyl)-2-oxo-1,2-dihydropyridin-3-yl)amino)-7-(methylamino)pyrazolo[1,5-a]pyrimidine-3-carboxamide]",IC50,[2],< 100 nM
same,IC50,[3],> 50000 nM
same,Kd,[1],< 0.2 nM
same,inhibition at 10 µM,Tyk2 kinase domain (JH1); 10 μM compound,< 50%
same,inhibition at 10 µM,JAK2 kinase domain (JH1); 10 μM compound,< 50%
CNc1cc(Nc2cccn(C(C)C)c2=O)cc2c(C(=O)N[C@H]3CC[C@@]3(C)O)cnn12 [I-1371],Kd,[1],< 0.2 nM
CNc1cc(Nc2cc(Cl)cn(C3CCOCC3)c2=O)nc2c(C(=O)NCC(C)(C)CO)cnn12 [I-694],IC50,[2],< 100 nM
same,IC50,[3],> 50000 nM
same,Kd,[1],< 0.2 nM
same,inhibition at 10 µM,Tyk2 kinase domain (JH1); compound at 10 μM,< 50%
same,inhibition at 10 µM,JAK2 kinase domain (JH1); compound at 10 μM,< 50%
CNc1cc(-c2cn(C3CC3)c3ncccc23)nc2c(C(=O)N[C@@H]3CC[C@H]3OC)cnn12 [I-1324],Kd,[1],< 0.2 nM
CNc1cc(-c2cn([C@H]3CCN(CCF)C3)c3cnccc23)nc2c(C(=O)N[C@@H]3C[C@@H]3F)cnn12 [I-1362],IC50,[2],< 100 nM
same,Kd,[1],0.2 to 1 nM
CNc1cc(Nc2cccc(N3CCOC4(CCOC4)C3)n2)nc2c(C(=O)NC3CC3)cnn12 (centres unmarked) [I-744],inhibition at 10 µM,Tyk2 kinase domain (JH1); compound at 10 μM,< 50%
same,inhibition at 10 µM,JAK2 kinase domain (JH1); compound at 10 μM,< 50%
CNc1cc(Nc2cccnc2OC2CC2)nc2c(C(=O)NC3CC4(COC4)C3)cnn12 [I-433],inhibition at 10 µM,Tyk2 kinase domain (JH1); compound at 10 μM,< 50%
same,inhibition at 10 µM,JAK2 kinase domain (JH1); compound at 10 μM,50 to 70%
CNc1cc(-c2cn([C@H]3CCN(CCF)C3)c3cnccc23)nc2c(C(=O)NC3CC3)cnn12 [I-1363],Kd,[1],0.2 to 1 nM
CNc1cc(C2=CN(C(C)C)C3N=CC(F)=CC23)nc2c(C(=O)N[C@H]3CC[C@H]3O)cnn12 (some centres unmarked) [I-1387],IC50,[2],< 100 nM
same,Kd,[1],1 to 10 nM
